Data reported in article PMC11459959, “Discovery of new acetamide derivatives of 5-indole-1,3,4-oxadiazol-2-thiol as inhibitors of HIV-1 Tat-mediated viral transcription” (Antimicrobial Agents and Chemotherapy, 2024).
Where two headings read alike, the source gives them in different places.

Columns and labels:
[1] = system: HIV-1NL4-3; assay: HIV-1 infectivity in TZM-bl cells (F-Luc); assay type: cell-based
Protocol: The TZM-bl cells (also referred to as JC53BL-13) expressing human CD4, CXCR4, and CCR5 carrying the F-Luc and lacZ genes downstream of the HIV-1 LTR promoter ([60]) were used to determine the inhibitory effect of the compounds on HIV-1 infection, as previously described ([11], [12], [61]). In brief, 1 × 10^4 cells were cultured in 96-well plates for 24 h and subsequently treated with compounds at the indicated concentrations. Without replacement of the culture medium, the cells were subsequently infected with the HIV-1NL4-3 wild-type or ARV-resistant HIV-1 strains at an MOI of 1 to determine the exact inhibitory effect of compounds on a single-round infection. After 48 h, the inhibitory effect of the compounds was determined using a Bright Glo luciferase assay kit (Promega) or β-Galactosidase Enzyme Assay kit (Promega). The infectivity data were presented as a percentage relative to the dimethyl sulfoxide (DMSO) control (vehicle). Cell viability was determined using the resazurin-based PrestoBlue Cell Viability Reagent (Thermo Fisher Scientific, Waltham, MA, USA) following the manufacturer’s instructions.

[2] = Cell viability of PBMCs; assay type: cell-based; settings: human
Protocol: (§1) The p24 level from the cell supernatant was subsequently determined using a p24 […] kit (PerkinElmer). In parallel, the cell viability was determined without viral infection because of the viral cytopathic effect. […] In parallel, cell viability was determined. The data (A and B) are presented as the mean ± SD (n = 3). (C) PBMCs (4 × 10^5) infected with HIV-AD8 at an MOI of 0.1 were treated with 1.5 µM of the compounds or ARVs for 3 days. The levels of p24 and cell viability were subsequently determined. (D) J1.1 cells were cultured with the compounds ([…]) under 50 ng/mL phorbol myristate acetate (PMA) treatment for 2 days. The level of p24 was subsequently determined. (E) J-Lat 6.3 cells were treated with the compounds (1.5 µM) under 1 µg/mL of PMA for 2 days. The GFP-positive cell population was analyzed using flow cytometry. The data are represented as a value relative to the DMSO-treated vehicle (D) and a percent of the GFP^+ cell population (E) as mean ± SD (n = 3).
(§2) The inhibitory effects of the compounds on viral replication were determined with some minor modifications, as previously described ([12], [62]). […] PBMCs (4 × 10^5) pre-activated with PHA-M for 3 days were washed with fresh media to remove excess PHA-M and subsequently infected with HIV-1NL4-3 or HIV-1AD8 or PIs-resistant HIV-1 strains as A3.01 infection. After infection, the infectious media were replaced with fresh media supplemented with international 10 units (IU)/mL of IL-2 and the indicated compounds. At 72 h after infection, the inhibitory effect of the compounds on viral replication was determined by measuring the p24 amount, an HIV capsid protein, using an HIV-1 p24 […] kit (PerkinElmer, Waltham, MA, USA). Cell viability was determined as described above. The inhibitory effects on provirus reversing in J1.1 and J-Lat 6.3 cells were determined as previously described ([12], [41], [63]) with some minor modifications. Briefly, 5 × 10^4 persistently HIV-1-infected J1.1 or J-Lat 6.3 cells were cultured in either the presence or absence of the compounds at a final concentration of 1.5 µM and treated with PMA (50 ng/mL for J1.1 cells, 1 µg/mL for J-Lat 6.3 cells). Two days after treatment, the levels of viral production were determined using p24 […] for J1.1 cells and flow cytometry analysis for GFP-expressing J-Lat 6.3 cells.

[3] = system: Tat-mediated LTR transcription; assay: Dual-reporter assay, F-Luc (Tat-mediated LTR transcription) in bl-DTR cells; assay type: cell-based, HIV-1; settings: Human immunodeficiency virus 1, 24 h, read-out: IC50 of F-Luc (Tat)
Protocol: Fig 1 (A) (Top panel) Schematic representation of the primary compound screening using a dual-reporter system. […] (B). […] (Top graphs) bl-DTR cells (1 × 10^4) were treated with twofold serial dilutions of each compound before doxycycline (Dox) addition (final concentration, 50 ng/mL). After 24 h of treatment, the activities of firefly luciferase (F-Luc, red line) and Renilla luciferase (R-Luc, blue line) were determined using the Dual-Glo Luciferase assay system. (Bottom graphs) TZM-bl cells were treated with each indicated compound and subsequently infected with the HIV-1NL4-3 strain at a multiplicity of infection (MOI) of 1. At 48 h after infection, the viral infectivity (purple line) and cell viability (green line) were determined using the Bright-Glo luciferase assay kit and the PrestoBlue Cell Viability Reagent, respectively. […] (C). […] The targeted moieties for the SAR study are marked with dotted-circle lines.
The Tzm-bl-derived dual Tat reporter; TZM-bl/Tat/Rluc (bl-DTR) cells were established from TZM-bl cells using two Dox-inducible lentiviral expression cassettes cloned with Flag-tagged Tat86 and the R-Luc gene, as described in our previous study ([11]). TZM-bl, A3.01, J1.1, and J-Lat 6.3 cells as well as the HIV-1 molecular clone pNL4-3, pNL(AD8), ARV-resistant HIV-1 strains, and HIV-1NL43-IRES-eGFP (pBR43IeG-nef^+, gifted by Dr. Frank Kirchhoff) ([52]) were provided by the National Institute of Health HIV Reagent Program (NIH, Bethesda, MD, USA). HeLa (CCL-2) and 293T (CRL-3216) cell lines were purchased from the American Type Culture Collection (ATCC, Manassas, VA, USA). The bl-DTR, TZM-bl, HeLa, and 293T cells were cultured in Dulbecco’s modified Eagle’s medium supplemented with 1% penicillin–streptomycin and 10% (vol/vol) heat-inactivated fetal bovine serum (all from Gibco-BRL, Gaithersburg, MD, USA), and 1 µg/mL of puromycin and 200 µg/mL of zeocin were additionally supplemented for the bl-DTR cells. PBMCs were purchased from AllCells (Alameda, CA, USA) and cultured as previously described ([12]). The information on ARV-resistant HIV-1 strains was described in previous reports as follows: NNRTI-resistant 12241 and 12243 ([53]); NRTI-resistant 7396, 7406, and 7407 ([54]); INSTI-resistant 11847 and 11849 ([55], [56]); and PI-resistant 11800 and 11803 ([57]). Each molecular HIV-1 clone was transfected to 293T cells, as previously described ([58]), to obtain infectious HIV-1 particles. Virus-containing cell culture supernatants were collected 3 days after transfection, and filtered through a 0.45-µm membrane filter (Millipore Sigma, Burlington, MA, USA) to remove cell debris. The viral titration was performed as described previously ([59]) with some minor modifications. In brief, 1 × 10^4 TZM-bl cells seeded in 96-well plates were infected with 200 µL of virus-containing medium diluted serially twofold. The incubation was for 2 days and the experiment was performed in triplicate; the infection time minimized the virus spread ([59]). The titration of the infectious viral particles was performed with a ß-Gal staining assay using the ßeta-Galactosidase Staining Kit (Mirus Bio, Madison, WI, USA) following the manufacturer’s protocols. In brief, the infected cells were washed with phosphate-buffered saline (PBS) and fixed using a Cell Fixative Working solution. The cells were washed with PBS and stained using the Cell Staining Working Solution containing X-gal. The infected blue-colored cells were counted under a microscope (100× magnification). The infectious virus titer was determined as a mean value of blue-colored cells count × dilution factor and used for determining the multiplicity of infection (MOI) in each infection experiment.

[4] = Cell viability of A3.01 cells; assay type: cell-based; settings: human
Protocol: as §1, §2

[5] = Human immunodeficiency virus 1, TZM-bl, 48 h, Table S1, WT virus, TZM-bl, fivefold serial dilutions, MOI 1, 48 h, read-out: EC50
[6] = PBMCs, absence of HIV-1 infection, mean ± SD, read-out: CC50
[7] = A3.01 cells, absence of HIV-1 infection, mean ± SD, read-out: CC50
[8] = Human immunodeficiency virus 1, TZM-bl, Table S1, WT virus, TZM-bl, read-out: EC50

SMILES: Cc1[nH]c2ccc(-c3nnc(SCC(=O)N4CCCCC4)o3)cc2c1C [Compound 9, 2-((5-(2,3-Dimethyl-1H-indol-5-yl)-1,3,4-oxadiazol-2-yl)thio)-1-(piperidin-1-yl)ethan-1-one]
- EC50 ([1]; Human immunodeficiency virus 1, TZM-bl, 48 h, TZM-bl cells infected with HIV-1NL4-3 at MOI 1, 48 h, F-Luc, mean ± SD, read-out: EC50): 170 ± 20 nM
- EC50 [1, 5]: 130 ± 20 nM
- EC90 ([1]; Human immunodeficiency virus 1, TZM-bl cells, read-out: approximate EC90): ~1500 nM
- SI (CC50/EC50) ([1]; TZM-bl cells): 371.76
- CC50 at 3 days [2]: 44100 ± 3710 nM
- IC50 [3]: 140 nM
- CC50 at 3 days [4]: 56100 ± 4480 nM

SMILES: CC(C)[C@]12O[C@H]1[C@@H]1O[C@]13[C@]1(O[C@H]1C[C@H]1C4=C(CC[C@@]13C)C(=O)OC4)[C@@H]2O [triptolide, reference compound]
- EC50 ([1]; Human immunodeficiency virus 1, TZM-bl, 48 h, TZM-bl cells infected with HIV-1NL4-3 at MOI 1, 48 h, read-out: EC50): 0.38 ± 0.07 nM
- SI (CC50/EC50) ([1]; TZM-bl cells): 52.63
- CC50 at 3 days [2, 6]: 190 nM
- IC50 [3]: 0.82 ± 0.02 nM
- CC50 at 3 days [4, 7]: 220 ± 40 nM

SMILES: C[C@@H]1CCO[C@H]2Cn3cc(C(=O)NCc4ccc(F)cc4F)c(=O)c(O)c3C(=O)N12 [DTG, dolutegravir, reference compound]
- EC50 [1, 8]: 1 nM
- CC50 at 3 days [2]: 18300 ± 580 nM
- CC50 at 3 days [4]: 7670 ± 610 nM

SMILES: Cc1[nH]c2ccc(-c3nnc(SCC(=O)N4CCCC4)o3)cc2c1C [Compound 13, 2-((5-(2,3-Dimethyl-1H-indol-5-yl)-1,3,4-oxadiazol-2-yl)thio)-1-(pyrrolidin-1-yl)ethan-1-one]
- EC50 ([1]; Human immunodeficiency virus 1, TZM-bl, 48 h, TZM-bl cells infected with HIV-1NL4-3 at MOI 1, 48 h, F-Luc, mean ± SD): 180 ± 50 nM
- EC50 [1, 5]: 200 ± 20 nM
- SI (CC50/EC50) ([1]; TZM-bl cells): 196.33
- EC50 ([1]; TZM-bl cells infected with HIV-1NL4-3 at MOI 1, 48 h, F-Luc, mean ± SD, read-out: EC50): 240 ± 30 nM
- CC50 at 3 days [2]: 45200 ± 5690 nM
- IC50 [3]: 300 ± 30 nM
- CC50 at 3 days [4]: 47600 ± 1880 nM

SMILES: O=C1Nc2ccc(Cl)cc2[C@@](C#CC2CC2)(C(F)(F)F)O1 [EFV, efavirenz, reference compound]
- EC50 [1, 8]: < 1 nM
- CC50 at 3 days [2, 6]: 29500 ± 3620 nM
- CC50 at 3 days [4, 7]: 22700 ± 1650 nM
